The assay addresses T1, NK-1 receptor (Homo sapiens, UniProt P25103).
T1 construct: endogenous in cells; host or cells: IM9 cells (human cell line), whole cells
The assay can be described thus: NK-1 Receptor Binding Assay (125I-labeled substance P, IM9 cells). The following applies: for IC50: inhibits fifty percent of binding of 125I-substance P to IM9 cells. How it is done:
The biological activity of the compounds of the present invention was evaluated employing an initial screening assay which rapidly and accurately measured the binding of the tested compound to known NK-1 and NK-2 receptor sites. Assays useful for evaluating tachykinin receptor antagonists are well known in the art.
NK-1 Receptor Binding Assay
Radioreceptor binding assays were performed using a derivative of a previously published protocol.
The IM9 cell line is a well-characterized and readily available human cell line.
The reaction was terminated by filtration through a glass fiber filter harvesting system using filters previously soaked for 20 minutes in 0.1% polyethylenimine. Specific binding of labeled substance P was determined in the presence of 20 nM unlabeled ligand.

T1 sequence (P25103 whole entry): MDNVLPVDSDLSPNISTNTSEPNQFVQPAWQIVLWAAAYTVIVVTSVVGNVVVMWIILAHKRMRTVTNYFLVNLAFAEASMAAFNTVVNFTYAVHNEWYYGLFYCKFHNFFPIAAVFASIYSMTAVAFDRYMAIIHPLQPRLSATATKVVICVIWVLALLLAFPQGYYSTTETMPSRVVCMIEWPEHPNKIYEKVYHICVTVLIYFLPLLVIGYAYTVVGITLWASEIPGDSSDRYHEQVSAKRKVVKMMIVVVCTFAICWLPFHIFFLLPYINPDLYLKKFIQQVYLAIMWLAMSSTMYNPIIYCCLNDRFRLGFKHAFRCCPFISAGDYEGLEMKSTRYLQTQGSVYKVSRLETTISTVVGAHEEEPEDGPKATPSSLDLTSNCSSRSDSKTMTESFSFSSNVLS

On to `O=C(CN1CCN(c2ccccc2)CC1)NC(CNCc1ccccc1Cl)Cc1c[nH]c2ccccc12` (centres unmarked) [Example 2, 1-[N-(2-chlorobenzyl)amino]-3-(1H-indol-3-yl)-2-[N-(2-((4-phenyl)piperazin-1-yl)acetyl)amino]propane], for which the IC50 – broadly, the concentration at which inhibition is half-maximal – amounted to 0.036 µM.

In turn, `O=C(CN1CCN(c2ccccc2)CC1)NC(CNCc1ccccc1C(F)(F)F)Cc1c[nH]c2ccccc12` (centres unmarked) [Example 3] gave an IC50 of 0.029 µM.

With `COc1ccccc1CNC[C@@H](Cc1c[nH]c2ccccc12)NC(=O)CN1CCN(c2ccccc2)CC1` [Example 5], the 50% inhibitory concentration (IC50) was found to be 0.062 µM.

For the compound `COc1ccccc1CNCC(Cc1c[nH]c2ccccc12)NC(=O)CN1CCN(c2ccccc2)CC1` (centres unmarked) [Example 6], under “@ 1 μM”, the “NK-1 percent inhibition of binding” value is on record as 62% @. `COc1cccc(CNCC(Cc2c[nH]c3ccccc23)NC(=O)CN2CCN(c3ccccc3)CC2)c1` (centres unmarked) [Example 7] yielded an IC50 of 0.23 µM. `COc1ccc(CNCC(Cc2c[nH]c3ccccc23)NC(=O)CN2CCN(c3ccccc3)CC2)cc1` (centres unmarked) [Example 8] yielded a half-maximal inhibitory concentration (IC50) of 0.13 µM. `CC(=O)N(Cc1ccccc1Cl)CC(Cc1c[nH]c2ccccc12)NC(=O)CN1CCN(c2ccccc2)CC1` (centres unmarked) [Example 13] registered a concentration for half-maximal inhibition (IC50) of 0.0013 µM. Same read-out and setting: for `CC(=O)N(Cc1ccccc1C(F)(F)F)CC(Cc1c[nH]c2ccccc12)NC(=O)CN1CCN(c2ccccc2)CC1` (centres unmarked) [Example 15] the value was 0.0021 µM. The same measure, in the same setting: to `CCCCN(CC(Cc1c[nH]c2ccccc12)NC(=O)CN1CCN(c2ccccc2)CC1)C(C)=O` (centres unmarked) [Example 39] belongs 0.139 µM. Compound `CC(=O)N(Cc1ccccc1Cl)CC(Cc1c[nH]c2ccccc12)NC(=O)CN1CCC(N2CCCCC2)CC1` (centres unmarked) [Example 48] registered an IC50 of 0.00024 µM. On the same count and under the same terms, for `CC(=O)N(Cc1ccccc1Cl)CC(Cc1c[nH]c2ccccc12)NC(=O)CN1CCC(N2CCCCC2)CC1` (centres unmarked) [Example 49] the value was 0.135 µM; for `COc1ccccc1CN(CC(Cc1c[nH]c2ccccc12)NC(=O)CBr)C(C)=O` (centres unmarked) [Example 55], 0.071 µM; for `COc1ccccc1CN(CC(Cc1c[nH]c2ccccc12)NC(=O)CSc1ccccc1)C(C)=O` (centres unmarked) [Example 57], 0.15 µM. The same measure, in the same setting: for `COc1ccccc1CN(CC(Cc1c[nH]c2ccccc12)NC(=O)CN1CCN(C(C)C)CC1)C(C)=O` (centres unmarked) [Example 73] the value was 0.00099 µM; for `CC(=O)N(Cc1ccccc1Cl)CC(Cc1c[nH]c2ccccc12)NC(=O)CN1CCN(C(C)C)CC1` (centres unmarked) [Example 86], 0.00036 µM. On the same count and under the same terms, to `CC(=O)N(Cc1ccccc1Cl)CC(Cc1c[nH]c2ccccc12)NC(=O)CN1CCN(C2CCCCC2)CC1` (centres unmarked) [Example 87] belongs 0.00077 µM; to `COc1ccccc1CN(CC(Cc1c[nH]c2ccccc12)NC(=O)CCc1ccccc1)C(C)=O` (centres unmarked) [Example 90], 0.065 µM; to `COc1ccccc1CN(CC(Cc1c[nH]c2ccccc12)NC(=O)CCc1ccccc1)C(C)=O` (centres unmarked) [Example 91], 3 µM. For `COc1ccccc1CN(CC(Cc1c[nH]c2ccccc12)NC(=O)OCc1ccccc1)C(C)=O` (centres unmarked) [Example 92], the IC50 amounted to 0.0972 µM. In the case of `COc1ccccc1CN(C[C@H](Cc1c[nH]c2ccccc12)NC(=O)OCc1ccccc1)C(C)=O` [Example 93], the “NK-1 percent inhibition of binding” value (@ 1 μM) came to 16% @. Take `COc1ccccc1CN(C[C@@H](Cc1c[nH]c2ccccc12)NC(=O)CCC(=O)c1ccccc1)C(C)=O` [Example 96]: the half-maximal inhibitory concentration (IC50) turned out to be 0.0344 µM. This counts as double-digit nanomolar.

Regarding `COc1ccccc1CN(C[C@H](Cc1c[nH]c2ccccc12)NC(=O)CCC(=O)c1ccccc1)C(C)=O` [Example 97], the half-inhibitory concentration (IC50) amounted to 1.3 µM. Against the preceding compound, the IC50 is about 38-fold higher. Same read-out and setting: for `COc1ccccc1CNCC(Cc1c[nH]c2ccc(OCc3ccccc3)cc12)NC(=O)CN1CCN(c2ccccc2)CC1` (centres unmarked) [Example 112] the value was 0.27 µM; for `COc1ccccc1CN(CC(Cc1c[nH]c2c(C)cccc12)NC(=O)CN1CCN(c2ccccc2)CC1)C(C)=O` (centres unmarked) [Example 115], 0.0154 µM. On the same count and under the same terms, to `COc1ccc2[nH]cc(CC(CN(Cc3ccccc3OC)C(C)=O)NC(=O)CN3CCN(c4ccccc4)CC3)c2c1` (centres unmarked) [Example 117] belongs 0.033 µM. Compound `COc1ccccc1CN(CC(Cc1c[nH]c2ccc(OCc3ccccc3)cc12)NC(=O)CN1CCN(c2ccccc2)CC1)C(C)=O` (centres unmarked) [Example 118] yielded a half-maximal inhibitory concentration (IC50) of 0.31 µM.

`COc1ccccc1CNCC(Cc1c[nH]c2ccc(Br)cc12)NC(=O)CN1CCC(N2CCCCC2)CC1` (centres unmarked) [Example 120] displayed a half-inhibitory concentration (IC50) of 2.5 µM. This IC50 is about 8.1-fold higher than that of the compound before. On the same count and under the same terms, for `COc1ccc2[nH]cc(CC(CNCc3ccccc3OC)NC(=O)CN3CCC(N4CCCCC4)CC3)c2c1` (centres unmarked) [Example 121] the value was 0.85 µM; for `COc1ccccc1CNCC(Cc1c[nH]c2ccc(OCc3ccccc3)cc12)NC(=O)CN1CCC(N2CCCCC2)CC1` (centres unmarked) [Example 122], 0.55 µM; for `COc1ccccc1CN(CC(Cc1c[nH]c2c(C)cccc12)NC(=O)CN1CCC(N2CCCCC2)CC1)C(C)=O` (centres unmarked) [Example 128], 0.0011 µM. For the compound `COc1ccccc1CN(CC(Cc1c[nH]c2ccc(Br)cc12)NC(=O)CN1CCC(N2CCCCC2)CC1)C(C)=O` (centres unmarked) [Example 129], the IC50 turned out to be 0.0085 µM. Turning to `COc1ccc2[nH]cc(CC(CN(Cc3ccccc3OC)C(C)=O)NC(=O)CN3CCC(N4CCCCC4)CC3)c2c1` (centres unmarked) [Example 130], the concentration for half-maximal inhibition (IC50) was determined as 0.019 µM. Compared with the last compound, the IC50 is about 2.2-fold higher. The same measure, in the same setting: for `COc1ccccc1CN(CC(Cc1c[nH]c2ccc(OCc3ccccc3)cc12)NC(=O)CN1CCC(N2CCCCC2)CC1)C(C)=O` (centres unmarked) [Example 131] the value was 0.067 µM. Still for that read-out and setting: for `COc1ccccc1CN(CC(Cc1c[nH]c2cc(F)ccc12)NC(=O)CN1CCC(N2CCCCC2)CC1)C(C)=O` (centres unmarked) [Example 131a] the value was 0.0007 µM. Compound `COc1ccccc1CN(CC(C)(Cc1c[nH]c2ccccc12)NC(=O)CN1CCC(N2CCCCC2)CC1)C(C)=O` (centres unmarked) [Example 132] had an IC50 of 0.0042 µM. Still for that read-out and setting: for `COc1ccccc1CN(CC(C)(Cc1c[nH]c2ccccc12)NC(=O)CN1CCN(c2ccccc2)CC1)C(C)=O` (centres unmarked) [Example 133] the value was 0.0116 µM. In the case of `COc1ccccc1CN(CC(C)(Cc1c[nH]c2ccccc12)NC(=O)CBr)C(=O)OC(C)(C)C` (centres unmarked) [Example 134], the “NK-1 percent inhibition of binding” value (@ 1 μM) is reported as 14% @. `COc1ccccc1CN(CC(Cc1csc2ccccc12)NC(=O)CN1CCN(c2ccccc2)CC1)C(C)=O` (centres unmarked) [Example 143] displayed an IC50 of 0.0079 µM. The same measure, in the same setting: for `COc1ccccc1CN(CC(Cc1csc2ccccc12)NC(=O)CN1CCC(N2CCCCC2)CC1)C(C)=O` (centres unmarked) [Example 149] the value was 0.0012 µM.

In the case of `NCC(Cc1c[nH]c2ccccc12)NC(=O)CN1CCN(c2ccccc2)CC1` (centres unmarked) [Example 150, 1-amino-3-(1H-indol-3-yl)-2-[N-(2-((4-phenyl)piperazin-1-yl)acetyl)amino]propane], under “@ 1 μM, read-out: NK-1 percent inhibition of binding”, the inhibition (commonly the relative decrease from the control value, in per cent) at 1 µM amounted to 45%. Consider `NCC(NC(c1ccccc1)(c1ccccc1)c1ccccc1)c1ccc(Cl)c(Cl)c1` (centres unmarked) [Example 172], for which the “NK-1 percent inhibition of binding” value (@ 5 μM) is 46% @.

The record behind these values is patent US6869957B1, “Non-peptide tachykinin receptor antagonists” (Eli Lilly and Company, priority 1993, dated 2005).
